The values that follow come from ChEMBL document CHEMBL3808350, “Stacking with No Planarity?” (ACS Med Chem Lett, 2016).

The nature of experiment [1]: Displacement of (Z)-5-(4-(3-carboxy-3-hydroxyacryloyl)-4-(4-chlorobenzyl)piperidine-1-carbonyl)-2-(6-hydroxy-3-oxo-3H-xanthen-9-yl)benzoic acid from Influenza A virus (A/Viet Nam/1203/2004(H5N1)) recombinant C-terminal 10X-His-tagged polymerase acidic protein (1 to 209 residues) expressed in Escherichia coli BL21 (DE3) after 30 mins by fluorescence polarization assay. A general note: In fluorescence polarisation assays a small probe gives low polarisation when free and higher when bound to something large.

A further experiment deals with Aminopeptidase B (Homo sapiens, UniProt Q9H4A4). Nature of the experiment: Inhibition of aminopeptidase B (unknown origin).
Experiment [2] has as its target T1, Bifunctional epoxide hydrolase 2 (Homo sapiens, UniProt P34913).
T1 sequence (P34913 whole entry): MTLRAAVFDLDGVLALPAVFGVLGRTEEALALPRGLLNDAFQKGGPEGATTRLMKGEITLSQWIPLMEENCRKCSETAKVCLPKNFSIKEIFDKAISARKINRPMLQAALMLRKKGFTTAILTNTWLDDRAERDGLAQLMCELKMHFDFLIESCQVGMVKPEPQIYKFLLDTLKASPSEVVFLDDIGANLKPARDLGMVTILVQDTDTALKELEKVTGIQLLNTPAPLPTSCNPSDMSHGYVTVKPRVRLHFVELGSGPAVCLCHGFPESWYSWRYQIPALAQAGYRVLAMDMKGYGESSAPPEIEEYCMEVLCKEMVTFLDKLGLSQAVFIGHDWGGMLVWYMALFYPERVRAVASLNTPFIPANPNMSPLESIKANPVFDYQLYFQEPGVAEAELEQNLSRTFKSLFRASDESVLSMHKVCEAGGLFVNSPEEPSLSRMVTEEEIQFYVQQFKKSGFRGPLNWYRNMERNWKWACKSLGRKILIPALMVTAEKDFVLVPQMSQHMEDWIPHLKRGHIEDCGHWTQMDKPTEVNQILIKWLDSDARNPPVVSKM
Nature of the experiment: Inhibition of sEH (unknown origin).

Chain of Aminopeptidase B (Q9H4A4 whole entry): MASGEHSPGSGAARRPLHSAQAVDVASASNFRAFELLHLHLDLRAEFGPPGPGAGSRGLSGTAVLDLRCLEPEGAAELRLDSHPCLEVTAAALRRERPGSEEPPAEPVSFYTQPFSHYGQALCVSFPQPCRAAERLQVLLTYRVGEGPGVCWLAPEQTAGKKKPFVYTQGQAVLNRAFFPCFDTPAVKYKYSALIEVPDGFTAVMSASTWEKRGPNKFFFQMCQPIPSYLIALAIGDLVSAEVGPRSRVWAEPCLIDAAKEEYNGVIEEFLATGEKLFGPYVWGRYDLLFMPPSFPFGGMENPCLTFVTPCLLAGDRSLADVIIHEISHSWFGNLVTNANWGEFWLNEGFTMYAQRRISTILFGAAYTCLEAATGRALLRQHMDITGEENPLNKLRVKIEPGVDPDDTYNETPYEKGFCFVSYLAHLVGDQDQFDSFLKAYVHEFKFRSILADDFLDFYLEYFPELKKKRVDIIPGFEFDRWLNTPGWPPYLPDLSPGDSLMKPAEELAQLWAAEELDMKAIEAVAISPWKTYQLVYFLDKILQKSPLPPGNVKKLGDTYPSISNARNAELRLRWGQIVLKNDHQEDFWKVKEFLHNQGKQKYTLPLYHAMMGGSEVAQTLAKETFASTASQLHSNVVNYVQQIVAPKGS

On to `O=C(O)/C(O)=C/C(O)C1(Cc2ccc(Cl)cc2)CCN(CC2CCCCC2)CC1` (stereo not given), for which, in experiment [1], the Ki (as a rule, a dissociation constant, usually derived from enzyme kinetics or from competition with a known ligand) is 84 nM.

Regarding `CC(C)C[C@H](NC(=O)[C@@H](O)[C@H](N)Cc1ccccc1)C(=O)O` [UBENIMEX], at Aminopeptidase B, the half-inhibitory concentration (IC50) (usually the concentration needed to halve the response being measured) is 160000 nM.

For `CC(C)C[C@H](NC(=O)[C@@H](O)[C@H](N)CC1CCCCC1)C(=O)O`, on Aminopeptidase B, the 50% inhibitory concentration (IC50) was determined as 3500 nM. Compared with the last compound, the IC50 is about 46-fold lower.

As to `O=C(O)/C(O)=C/C(O)C1(Cc2ccc(Cl)cc2)CCN(Cc2ccccc2)CC1` (stereo not given), in experiment [1], the inhibitory constant (Ki) worked out at 90 nM.

The compound `O=C(Nc1ccccc1)NC1CCCCC1` yielded an IC50 in experiment [2] of 760 nM.
